# Assay results: patent publication US20080015214A1 (priority 2005, published 2008)
# Key:
# Assay in all cases: biochemical
# Type in all cases: binding
# [1] = molecular target: kappa (κ) opioid receptor (Homo sapiens, UniProt P41145); conditions: 2C2 cell line membrane, U69593-H3 ligand
# [2] = molecular target: human nociceptin receptor (ORL-1) (Homo sapiens, UniProt P41146)
# mu (μ) opioid receptor = mu (μ) opioid receptor (Homo sapiens, UniProt P35372)
# Sequence of mu (μ) opioid receptor (P35372 whole entry): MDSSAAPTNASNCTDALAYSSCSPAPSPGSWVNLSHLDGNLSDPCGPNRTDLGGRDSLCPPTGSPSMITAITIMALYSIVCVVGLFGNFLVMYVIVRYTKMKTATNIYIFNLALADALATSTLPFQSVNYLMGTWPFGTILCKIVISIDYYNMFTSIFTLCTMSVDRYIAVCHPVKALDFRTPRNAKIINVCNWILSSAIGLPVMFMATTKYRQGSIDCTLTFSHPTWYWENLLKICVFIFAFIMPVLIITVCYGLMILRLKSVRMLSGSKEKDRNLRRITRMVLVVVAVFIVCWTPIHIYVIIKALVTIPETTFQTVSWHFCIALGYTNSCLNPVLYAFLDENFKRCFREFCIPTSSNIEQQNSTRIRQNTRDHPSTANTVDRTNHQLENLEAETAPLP
# Sequence of human nociceptin receptor (ORL-1) (P41146 whole entry): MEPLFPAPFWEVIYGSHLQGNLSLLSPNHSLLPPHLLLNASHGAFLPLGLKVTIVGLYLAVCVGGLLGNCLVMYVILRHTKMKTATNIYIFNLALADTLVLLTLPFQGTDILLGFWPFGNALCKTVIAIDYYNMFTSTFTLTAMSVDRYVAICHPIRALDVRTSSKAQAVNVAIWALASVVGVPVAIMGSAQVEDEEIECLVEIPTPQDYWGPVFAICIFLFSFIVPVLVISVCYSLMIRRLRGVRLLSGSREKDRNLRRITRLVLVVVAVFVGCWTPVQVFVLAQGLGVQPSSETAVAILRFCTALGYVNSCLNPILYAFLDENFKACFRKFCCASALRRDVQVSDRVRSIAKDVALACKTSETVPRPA
# Sequence of kappa (κ) opioid receptor (P41145 whole entry): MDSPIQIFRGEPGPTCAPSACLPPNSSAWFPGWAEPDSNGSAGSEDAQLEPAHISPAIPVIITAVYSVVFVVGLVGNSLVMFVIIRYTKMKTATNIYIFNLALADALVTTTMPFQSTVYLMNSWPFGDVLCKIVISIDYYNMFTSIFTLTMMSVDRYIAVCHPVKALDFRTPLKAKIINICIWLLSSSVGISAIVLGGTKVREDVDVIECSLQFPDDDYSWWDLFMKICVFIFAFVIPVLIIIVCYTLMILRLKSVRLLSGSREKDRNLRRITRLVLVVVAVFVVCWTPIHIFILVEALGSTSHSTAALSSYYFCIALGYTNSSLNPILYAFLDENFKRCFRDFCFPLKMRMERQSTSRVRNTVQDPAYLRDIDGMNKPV
Structure (SMILES),IC50 [1],IC50 [2],IC50 (mu (μ) opioid receptor)
"OC1CN(C2Cc3cccc4cccc2c34)CCC1c1c[nH]c2ncccc12 (mixture of isomers) [Cpd 40, 1-acenaphthen-1-yl-4-(1 H-pyrrolo[2,3-b]pyridin-3-yl)-piperidin-3-ol]",4300 nM,–,–
"c1ccc2c(CN3CCC(c4c[nH]c5ncccc45)CC3)cccc2c1 [Cpd 33, 3-(1-naphthalen-1-ylmethyl-piperidin-4-yl)-1H-pyrrolo[2,3-b]pyridine]",–,821 nM,345 nM
"c1cc2c3c(cccc3c1)C(N1CCC(c3cn(C4Cc5cccc6cccc4c56)c4ncccc34)CC1)C2 (stereo not drawn) [Cpd 35, 1-acenaphthen-1-yl-3-(1-acenaphthen-1-yl-piperidin-4-yl)-1H-pyrrolo[2,3-b]pyridine]",840 nM,–,–
"c1cnc2[nH]cc(C3CCN(CC4CCCCC4)CC3)c2c1 [Cpd 52, 3-(1-cyclohexylmethyl-piperidin-4-yl)-1H-pyrrolo [2,3-b]pyridine]",–,3500 nM,–
"c1ccc(Oc2ccc(CN3CCC(c4c[nH]c5ncccc45)CC3)cc2)cc1 [Cpd 55, 3-[1-(4-phenoxy-benzyl)-piperidin-4-yl]-1H-pyrrolo[2,3-b]pyridine]",–,–,339 nM
